Experimental findings from US9394264B2 (Receptos, Inc., priority 2009, dated 2016) are described below.

Where a name gives a salt, the structure may show the parent alone. Bounds are passed on as bounds.

Chain of S1P1/EDG1 (P21453 whole entry): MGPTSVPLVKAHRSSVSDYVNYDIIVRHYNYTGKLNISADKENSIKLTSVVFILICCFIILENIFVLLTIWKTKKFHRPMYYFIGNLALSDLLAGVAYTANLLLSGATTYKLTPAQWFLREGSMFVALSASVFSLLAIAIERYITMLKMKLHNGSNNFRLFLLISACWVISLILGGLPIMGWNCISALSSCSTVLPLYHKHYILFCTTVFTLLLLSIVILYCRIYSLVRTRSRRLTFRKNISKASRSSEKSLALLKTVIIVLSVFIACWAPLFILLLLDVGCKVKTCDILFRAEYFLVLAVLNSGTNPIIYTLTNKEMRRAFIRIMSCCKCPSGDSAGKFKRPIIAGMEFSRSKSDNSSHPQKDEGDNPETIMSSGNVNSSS

The experiment addresses S1P1/EDG1 (Homo sapiens, UniProt P21453). Briefly: S1P1 CRE-bla CHOK1 reporter assay (inhibition of Forskolin induced cAMP). Format: cell-based. To be noted: agonist activity range, S1P1 CRE-bla CHOK1 cells, 2 μM Forskolin; read-out: S1P1 ACTIVITY
From the text: A mammalian expression plasmid containing S1P1/EDG1 cloned into pcDNA3.1 was purchased from Missouri S&T cDNA Resource Centre. The nucleotide and amino acid sequence of human S1P1/EDG1 are published in Hla and Maciag (J Biol Chem, 265(1990), 9308-9313). S1P1/pcDNA3.1 was transfected into the CRE-bla CHO K1 (Invitrogen) cell line, and stable single cell clones were selected using standard techniques. Expression of functional S1P1/EDG1 receptor was confirmed by cell surface FACS with a S1P1 antibody (R&D Systems, clone 218713) and S1P-mediated inhibition of Forskolin induced cAMP.
Cells were seeded into 384-well black wall/clear bottom plates at 10^4 cells/well/19.5 μl assay media (DMEM-phenol free, 0.5% charcoal/dextran stripped serum, 2 mM glutamine, 0.1 mM NEAA, 1 mM Na-Pyruvate, 25 mM Hepes) and incubated for 18 hrs at 37° C. in 5% CO2. Dose response curves (10-point) were generated in 10 mM Hepes, 0.1% Pluronic F127, in the presence of Forskolin. Cells were treated with 0.5 μl compound in the presence of 2 μM Forskolin for 4 hrs at 37° C. The FRET-based β-lactamase fluorescent substrate (LiveBLAzer™-FRET B/G Loading Kit CC4-AM; Invitrogen) was prepared according to manufacturer's directions, and incubated with cells for 2 hrs at room temperature. Plates were read at Ex:410/Em:458 and Ex:410/Em:522, and the response ratio determined. Data was analyzed by non-linear regression to determine the EC50 for inhibition of Forskolin induced cAMP.
In general terms: Reporter assays use an easily measured gene product as a stand-in for the process of interest.
Regarding `CC(C)Oc1ccc(-c2nc(-c3cccc4c3CCC[C@H]4NS(=O)(=O)CC(=O)N3CCC3)no2)cc1C#N` [Compound 43], the EC50 was below 0.05 nM.

For `CC(C)Oc1ccc(-c2nc(-c3cccc4c3CCC[C@H]4NS(=O)(=O)CCN(C)C)no2)cc1C#N` [Compound 44, (R)-N-(5-(5-(3-cyano-4-isopropoxyphenyl)-1,2,4-oxadiazol-3-yl)-1,2,3,4-tetrahydronaphthalen-1-yl)-2-(dimethylamino)ethanesulfonamide], the EC50 is 0.05 to 0.5 nM.

Consider `CC(C)Oc1ccc(-c2nc(-c3cccc4c3CCC[C@@H]4NS(=O)(=O)CCN(C)C)no2)cc1C#N` [Compound 45, (S)-N-(5-(5-(3-cyano-4-isopropoxyphenyl)-1,2,4-oxadiazol-3-yl)-1,2,3,4-tetrahydronaphthalen-1-yl)-2-(dimethylamino) ethanesulfonamide], for which the EC50 fell in the range of 0.5 to 5 nM.

Consider `CC(C)Oc1ccc(-c2nc(-c3cccc4c3CCC[C@@H]4NS(=O)(=O)CCN3CC[C@@H](O)C3)no2)cc1C#N` [Compound 46], for which the EC50 was 0.5 to 5 nM.

Turning to `CC(C)Oc1ccc(-c2nc(-c3cccc4c3CCC[C@H]4NS(=O)(=O)CCN3CC[C@@H](O)C3)no2)cc1C#N` [Compound 47], the EC50 is 0.05 to 0.5 nM.

`CC(C)Oc1ccc(-c2nc(-c3cccc4c3CCC[C@H]4NCCS(C)(=O)=O)no2)cc1C#N` [Compound 48, (R)-2-isopropoxy-5-(3-(5-((2-(methylsulfonyl)ethyl)amino)-5,6,7,8-tetrahydronaphthalen-1-yl)-1,2,4-oxadiazol-5-yl)benzonitrile]: the EC50 lay in the range of 0.05 to 0.5 nM.

Turning to `CC(C)Oc1ccc(-c2nc(-c3cccc4c3CCC[C@H]4NCCO)no2)cc1C#N` [Compound 50, (R)-5-(3-(5-((2-hydroxyethyl)amino)-5,6,7,8-tetrahydronaphthalen-1-yl)-1,2,4-oxadiazol-5-yl)-2-isopropoxybenzonitrile], the EC50 fell in the range of 0.05 to 0.5 nM.

In the case of `CC(C)Oc1ccc(-c2nc(-c3cccc4c3CCC[C@@H]4NCCO)no2)cc1C#N` [Compound 51, (S)-5-(3-(5-((2-hydroxyethyl)amino)-5,6,7,8-tetrahydronaphthalen-1-yl)-1,2,4-oxadiazol-5-yl)-2-isopropoxybenzonitrile], the EC50 fell in the range of 0.05 to 0.5 nM.

In the case of `CC(C)Oc1ccc(-c2nc(-c3cccc4c3CCC[C@H]4NCC(=O)O)no2)cc1C#N` [Compound 52, (R)-2-((5-(5-(3-cyano-4-isopropoxyphenyl)-1,2,4-oxadiazol-3-yl)-1,2,3,4-tetrahydronaphthalen-1-yl)amino) acetic acid], the EC50 is below 0.05 nM.

In the case of `CC(C)Oc1ccc(-c2nc(-c3cccc4c3CCC[C@@H]4NCC(=O)O)no2)cc1C#N` [Compound 53, (S)-2-((5-(5-(3-cyano-4-isopropoxyphenyl)-1,2,4-oxadiazol-3-yl)-1,2,3,4-tetrahydronaphthalen-1-yl)amino)acetic acid], the EC50 lay in the range of 0.05 to 0.5 nM.

As to `CC(C)Oc1ccc(-c2nc(-c3cccc4c3CCC[C@H]4NCC(=O)N3CCCC3)no2)cc1C#N` [Compound 54, (R)-2-isopropoxy-5-(3-(5-((2-oxo-2-(pyrrolidin-1-yl)ethyl)amino)-5,6,7,8-tetrahydronaphthalen-1-yl)-1,2,4-oxadiazol-5-yl)benzonitrile], the EC50 lay within 0.5 to 5 nM.

In the case of `CC(C)Oc1ccc(-c2nc(-c3cccc4c3CCC[C@@H]4NCC(=O)N3CCCC3)no2)cc1C#N` [Compound 55, (S)-2-isopropoxy-5-(3-(5-((2-oxo-2-(pyrrolidin-1-yl)ethyl)amino)-5,6,7,8-tetrahydronaphthalen-1-yl)-1,2,4-oxadiazol-5-yl)benzonitrile], the EC50 lay in the range of 0.05 to 0.5 nM.

For `CC(C)Oc1ccc(-c2ncc(-c3cccc4c3CCC4O)o2)cc1C#N` (stereo not drawn) [Compound 56, 5-(5-(1-hydroxy-2,3-dihydro-1H-inden-4-yl)oxazol-2-yl)-2-isopropoxybenzonitrile], the EC50 was 0.5 to 5 nM.

On to `CC(C)Oc1ccc(-c2ncc(-c3cccc4c3CCC4NCCO)o2)cc1C#N` (stereo not drawn) [Compound 57, 5-(5-(1-(2-hydroxyethylamino)-2,3-dihydro-1H-inden-4-yl)oxazol-2-yl)-2-isopropoxybenzonitrile], for which the EC50 is 0.5 to 5 nM.

`CC(C)Oc1ccc(-c2ncc(-c3cccc4c3CCC4N[C@H](C)CO)o2)cc1C#N` (stereo partly drawn) [Compound 58, 5-(5-(1-((R)-1-hydroxypropan-2-ylamino)-2,3-dihydro-1H-inden-4-yl)oxazol-2-yl)-2-isopropoxybenzonitrile]: the EC50 was above 5 nM.

Turning to `CCOc1ccc(Cc2nc(-c3cccc4c3CCC4O)no2)cc1OCC` (stereo not drawn) [Compound 60, 4-(5-(3,4-diethoxybenzyl)-1,2,4-oxadiazol-3-yl)-2,3-dihydro-1H-inden-1-ol], the EC50 was above 5 nM.

As to `CCOc1ccc(Cc2nc(-c3cccc4c3CCC4NCCO)no2)cc1OCC` (stereo not drawn) [Compound 61, 2-((4-(5-(3,4-diethoxybenzyl)-1,2,4-oxadiazol-3-yl)-2,3-dihydro-1H-inden-1-yl)amino)ethanol], the EC50 is above 5 nM.

Take `CCOc1ccc(Cc2nc(-c3cccc4c3CCC4N[C@H](C)CO)no2)cc1OCC` (stereo partly drawn) [Compound 62]: the EC50 was above 5 nM.

Take `CCOc1ccc(Cc2nc(-c3cccc4c3CCC4NCCS(C)(=O)=O)no2)cc1OCC` (stereo not drawn) [Compound 63, 4-(5-(3,4-diethoxybenzyl)-1,2,4-oxadiazol-3-yl)-N-(2-(methylsulfonyl)ethyl)-2,3-dihydro-1H-inden-1-amine]: the EC50 is above 5 nM.

On to `CCOc1ccc(Cc2nc(-c3cccc4c3CCC4NCCS(=O)(=O)NC)no2)cc1OCC` (stereo not drawn) [Compound 64, 2-((4-(5-(3,4-diethoxybenzyl)-1,2,4-oxadiazol-3-yl)-2,3-dihydro-1H-inden-1-yl)amino)-N-methylethanesulfonamide], for which the EC50 is above 5 nM.

Consider `CCOc1ccc(Cc2nc(-c3cccc4c3CC[C@H]4N)no2)cc1OCC` [Compound 65, (R)-4-(5-(3,4-diethoxybenzyl)-1,2,4-oxadiazol-3-yl)-2,3-dihydro-1H-inden-1-amine hydrochloride], for which the EC50 was above 5 nM.

Turning to `CCOc1ccc(Cc2nc(-c3cccc4c3CC[C@@H]4NCC(=O)N(C)C)no2)cc1OCC` [Compound 66, (S)-2-((4-(5-(3,4-diethoxybenzyl)-1,2,4-oxadiazol-3-yl)-2,3-dihydro-1H-inden-1-yl)amino)-N,N-dimethylacetamide], the EC50 is above 5 nM.

In the case of `OCCN[C@@H]1CCc2c(-c3noc(-c4cc(-c5ccccc5)c(C(F)(F)F)s4)n3)cccc21` [Compound 67, (R)-2-(4-(5-(4-phenyl-5-(trifluoromethyl)thiophen-2-yl)-1,2,4-oxadiazol-3-yl)-2,3-dihydro-1H-inden-1-ylamino)ethanol], the EC50 is above 5 nM.

Consider `CC(C)Oc1ccc(-c2nc(-c3ccc4[nH]ccc4c3)no2)cc1C#N` [Compound 68, 5-(3-(1H-indol-5-yl)-1,2,4-oxadiazol-5-yl)-2-isopropoxybenzonitrile], for which the EC50 lay within 0.5 to 5 nM.

Regarding `CC(C)Oc1ccc(-c2nc(-c3ccc4occc4c3)no2)cc1C#N` [Compound 69, 5-(3-(benzofuran-5-yl)-1,2,4-oxadiazol-5-yl)-2-isopropoxybenzonitrile], the EC50 lay within 0.5 to 5 nM.

Consider `Cc1cnccc1-c1noc(-c2ccc(OC(C)C)c(C#N)c2)n1` [Compound 70, 2-isopropoxy-5-(3-(3-methylpyridin-4-yl)-1,2,4-oxadiazol-5-yl)benzonitrile], for which the EC50 is below 0.05 nM.

For the compound `CC(C)Oc1ccc(-c2nc(-c3ccnc(CO)c3)no2)cc1C#N` [Compound 71, 5-(3-(2-(hydroxymethyl)pyridin-4-yl)-1,2,4-oxadiazol-5-yl)-2-isopropoxy-benzonitrile], the EC50 was in the range of 0.05 to 0.5 nM.
